Laboratory results as given in patent publication US20260048138A1, “NOVEL PI3K AND/OR PIKK INHIBITORS, ANTIBODY-DRUG CONJUGATES COMPRISING THE SAME AND USES THEREOF” (HUTCHMED LIMITED, priority 2024, published 2026).
Like-named read-outs stand apart in the source and are kept apart here.

What was measured:
[1] = test system: MDA-MB-453; experiment: Inhibition of cell proliferation by payloads in vitro (CCK-8); type: cell-based; settings: Homo sapiens, MDA-MB-453, 144 h, read-out: IC50, nM MDA-MB-453
Protocol: (§1) The cells were added to a 96-well plate at 1.0×10^3 cells/well and 100 μL/well and incubated in a cell culture incubator at 37° C. and 5% CO2. The test compounds were diluted with a DMEM medium containing 2% DMSO (Sigma-Aldrich, Cat. No. 34869) in a 4-fold gradient to the corresponding concentrations. […] The final concentration of DMSO was 0.2%. The cells were incubated in a cell culture incubator at 37° C. and 5% CO2 for 6 days.
(§2) After 6 days of culture, 10 μL/well of Cell Counting Kit-8 reagent (CCK-8, Dojindo, Cat. No. CK04) was added to the wells and mixed well with shaking. The cells were incubated in a cell culture incubator at 37° C. and 5% CO2 for 0.50-4.0 hours.
(§3) The OD450 optical density value was read on an EnVision™ multi-function microplate reader (PerkinElmer), and the inhibition rates (%) of the compounds were calculated. Then, the half-maximal inhibitory concentration (IC50) values were obtained using the XLfit5 software (ID Business Solutions Limited). All samples were tested in duplicate wells.
(§4) [formula] • wherein • OD450test compound represents the optical density value in the wells of the compounds to be tested; • OD450cell represents the optical density value in the wells of cell controls; • OD450background represents the optical density value in the wells of cell-free controls.

[2] = test system: MDA-MB-468; experiment: as above; type: cell-based; settings: Homo sapiens, MDA-MB-468, 144 h, read-out: IC50, nM MDA-MB-468
Protocol: as §1, §2, §3, §4

[3] = molecular target: T1, Human PIK3CA/PIK3R1 (p110α/p85α) recombinant protein (Homo sapiens, UniProt P42336); experiment: PIK3CA/PIK3R1 (p110α/p85α) kinase activity, Transcreener ADP2 FP; type: biochemical; settings: 10 μM ATP, 30 μM PIP2:PS; read-out: PIK3CA/PIK3R1 (p110α/p85α) (Enzyme, IC50)
T1 construct: His tag; purchased Invitrogen PV4788
Protocol: The complex formed by the binding of the ADP Alexa633 Tracer to the ADP2 antibody therein could produce fluorescence polarization. […] Assay is carried out according to the instruction of the kit. […] After that, 10 μl PIK3CA/PIK3R1 (p110α/p85α) enzyme solution was added to each well; then, 10 μl of a mixed solution of ATP and PIP2:PS lipid kinase substrate was added to each well, and the mixture was centrifuged at 1000 rpm for 60 seconds; Then, the 96-well plate was placed in a constant temperature incubator protected from light and incubated at room temperature for 1 hour. […] After the enzymatic reaction was completed, 25 μl of ADP detection mixture was added to the positive control group, 25 μl of ADP detection mixture without ADP^2 antibody was added to the negative control group, and 25 μl of ADP detection mixture without tracer-label ADP and ADP^2 antibody was added to the blank control group. Then centrifugation was performed at 1000 rpm for 60 seconds. The 96-well plate was placed in a constant temperature incubator protected from light, and incubated at room temperature for 1.5 hours. […] [formula] The inhibition rate was calculated using the formula as below: [formula]

[4] = molecular target: T2, Human FRAP1 (mTOR) recombinant protein (Homo sapiens, UniProt P42345); experiment: FRAP1 (mTOR) kinase activity, LanthaScreen TR-FRET; type: biochemical; settings: 10 μM ATP, 0.4 μM GFP-4EBP1; read-out: FRAP1 (mTOR) (Enzyme, IC50)
T2 construct: GST; purchased Invitrogen PV4753
T2 sequence (P42345 1360-2549 limits assumed): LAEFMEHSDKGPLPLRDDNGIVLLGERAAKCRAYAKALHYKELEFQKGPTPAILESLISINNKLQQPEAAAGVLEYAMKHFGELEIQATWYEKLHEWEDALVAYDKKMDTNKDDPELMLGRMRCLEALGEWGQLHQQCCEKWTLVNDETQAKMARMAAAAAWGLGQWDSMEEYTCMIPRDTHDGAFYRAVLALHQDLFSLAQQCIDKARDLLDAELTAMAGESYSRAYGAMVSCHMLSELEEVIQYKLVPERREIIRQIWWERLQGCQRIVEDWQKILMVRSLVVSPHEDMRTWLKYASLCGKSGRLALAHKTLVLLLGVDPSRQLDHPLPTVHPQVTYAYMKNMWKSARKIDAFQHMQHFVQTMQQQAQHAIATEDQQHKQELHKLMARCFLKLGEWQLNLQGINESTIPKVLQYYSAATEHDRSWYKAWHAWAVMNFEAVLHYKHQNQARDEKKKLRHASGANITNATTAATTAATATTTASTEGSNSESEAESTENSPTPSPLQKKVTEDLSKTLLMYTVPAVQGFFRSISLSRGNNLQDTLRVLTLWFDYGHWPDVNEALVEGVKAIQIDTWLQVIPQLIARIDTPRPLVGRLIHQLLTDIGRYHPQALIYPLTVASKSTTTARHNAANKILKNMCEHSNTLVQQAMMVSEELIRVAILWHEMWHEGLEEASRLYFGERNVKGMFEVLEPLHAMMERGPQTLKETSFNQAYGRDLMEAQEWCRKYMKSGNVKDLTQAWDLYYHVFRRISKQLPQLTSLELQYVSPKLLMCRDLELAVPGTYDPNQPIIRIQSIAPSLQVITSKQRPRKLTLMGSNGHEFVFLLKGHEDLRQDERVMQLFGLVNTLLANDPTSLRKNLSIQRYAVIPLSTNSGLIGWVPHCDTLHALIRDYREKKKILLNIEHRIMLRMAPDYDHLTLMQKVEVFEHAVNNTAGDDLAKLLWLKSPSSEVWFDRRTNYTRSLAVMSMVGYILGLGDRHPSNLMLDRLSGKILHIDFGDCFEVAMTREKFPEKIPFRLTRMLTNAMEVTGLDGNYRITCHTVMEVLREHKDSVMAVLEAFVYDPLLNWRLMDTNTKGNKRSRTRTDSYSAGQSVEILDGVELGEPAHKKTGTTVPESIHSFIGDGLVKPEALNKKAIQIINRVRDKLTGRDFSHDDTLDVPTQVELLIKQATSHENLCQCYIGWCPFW
Protocol: Determination of FRAP1 (mTOR) Kinase Activity • Human FRAP1 (mTOR) recombinant protein (GST tag): Invitrogen, Cat. No. PV4753; • GFP-4E-BP1: Thermo Scientific, Cat. No. PV4759; • LanthaScreenTM Tb-p4E-BP1 ([…]) antibody: Thermo Scientific, Cat. No. PV4755; • TR-FRET dilution buffer: Thermo Scientific, Cat. No. PV3574; • ATP solution (10 mM): Thermo Scientific, Cat. No. PV3227; • HEPES (1 M): Gibco, Cat. No. 15630-106; • EDTA (0.5 M), pH 8.0, RNase-free: Invitrogen, Cat. No. A[…]; • Manganese chloride solution: Sigma-Aldrich, Cat. No. M1787; • EGTA: Sigma-Aldrich, Cat. No. E4378; • TWEEN®20: Sigma-Aldrich, Cat. No. P2287; • DTT: Sigma-Aldrich, Cat. No. DTT-RO; • 384-well plate: Corning, Cat. No. 3676; • 384-well plate: Corning, Cat. No. 4514; • Envision multi-mode plate reader: PerkinElmer; 4EBP1 is the substrate of mTOR, and when mTOR is activated, it will phosphorylate […] of the 4EBP1 protein. LanthaScreenTM kinase assay is used to detect the amount of phosphorylated substrate GFP-4E-BP1 produced in kinase activity experiments, thereby judging the mTOR kinase activity, and through the strength of the kinase activity, distinguishing the inhibitory effects of different compounds on the activity of FRAP1 (mTOR) kinase. […] Then, the 384-well plate was placed in a constant temperature incubator protected from light and incubated at room temperature for 1 hour. […] The 384-well plate was taken out and the plate was read using an Envision multi-mode plate reader (the excitation light wavelength was 320 nm and the emission light wavelengths were 495 nm and 520 nm). The inhibition rate was calculated using the formula as below: [formula]

[5] = molecular target: ATM(h) (Homo sapiens, UniProt Q13315); experiment: ATM(h) kinase activity, HTRF (Eurofins Cerep); type: biochemical; settings: read-out: ATM(h) (enzyme, IC50)
Sequence of ATM(h) (Q13315 whole entry): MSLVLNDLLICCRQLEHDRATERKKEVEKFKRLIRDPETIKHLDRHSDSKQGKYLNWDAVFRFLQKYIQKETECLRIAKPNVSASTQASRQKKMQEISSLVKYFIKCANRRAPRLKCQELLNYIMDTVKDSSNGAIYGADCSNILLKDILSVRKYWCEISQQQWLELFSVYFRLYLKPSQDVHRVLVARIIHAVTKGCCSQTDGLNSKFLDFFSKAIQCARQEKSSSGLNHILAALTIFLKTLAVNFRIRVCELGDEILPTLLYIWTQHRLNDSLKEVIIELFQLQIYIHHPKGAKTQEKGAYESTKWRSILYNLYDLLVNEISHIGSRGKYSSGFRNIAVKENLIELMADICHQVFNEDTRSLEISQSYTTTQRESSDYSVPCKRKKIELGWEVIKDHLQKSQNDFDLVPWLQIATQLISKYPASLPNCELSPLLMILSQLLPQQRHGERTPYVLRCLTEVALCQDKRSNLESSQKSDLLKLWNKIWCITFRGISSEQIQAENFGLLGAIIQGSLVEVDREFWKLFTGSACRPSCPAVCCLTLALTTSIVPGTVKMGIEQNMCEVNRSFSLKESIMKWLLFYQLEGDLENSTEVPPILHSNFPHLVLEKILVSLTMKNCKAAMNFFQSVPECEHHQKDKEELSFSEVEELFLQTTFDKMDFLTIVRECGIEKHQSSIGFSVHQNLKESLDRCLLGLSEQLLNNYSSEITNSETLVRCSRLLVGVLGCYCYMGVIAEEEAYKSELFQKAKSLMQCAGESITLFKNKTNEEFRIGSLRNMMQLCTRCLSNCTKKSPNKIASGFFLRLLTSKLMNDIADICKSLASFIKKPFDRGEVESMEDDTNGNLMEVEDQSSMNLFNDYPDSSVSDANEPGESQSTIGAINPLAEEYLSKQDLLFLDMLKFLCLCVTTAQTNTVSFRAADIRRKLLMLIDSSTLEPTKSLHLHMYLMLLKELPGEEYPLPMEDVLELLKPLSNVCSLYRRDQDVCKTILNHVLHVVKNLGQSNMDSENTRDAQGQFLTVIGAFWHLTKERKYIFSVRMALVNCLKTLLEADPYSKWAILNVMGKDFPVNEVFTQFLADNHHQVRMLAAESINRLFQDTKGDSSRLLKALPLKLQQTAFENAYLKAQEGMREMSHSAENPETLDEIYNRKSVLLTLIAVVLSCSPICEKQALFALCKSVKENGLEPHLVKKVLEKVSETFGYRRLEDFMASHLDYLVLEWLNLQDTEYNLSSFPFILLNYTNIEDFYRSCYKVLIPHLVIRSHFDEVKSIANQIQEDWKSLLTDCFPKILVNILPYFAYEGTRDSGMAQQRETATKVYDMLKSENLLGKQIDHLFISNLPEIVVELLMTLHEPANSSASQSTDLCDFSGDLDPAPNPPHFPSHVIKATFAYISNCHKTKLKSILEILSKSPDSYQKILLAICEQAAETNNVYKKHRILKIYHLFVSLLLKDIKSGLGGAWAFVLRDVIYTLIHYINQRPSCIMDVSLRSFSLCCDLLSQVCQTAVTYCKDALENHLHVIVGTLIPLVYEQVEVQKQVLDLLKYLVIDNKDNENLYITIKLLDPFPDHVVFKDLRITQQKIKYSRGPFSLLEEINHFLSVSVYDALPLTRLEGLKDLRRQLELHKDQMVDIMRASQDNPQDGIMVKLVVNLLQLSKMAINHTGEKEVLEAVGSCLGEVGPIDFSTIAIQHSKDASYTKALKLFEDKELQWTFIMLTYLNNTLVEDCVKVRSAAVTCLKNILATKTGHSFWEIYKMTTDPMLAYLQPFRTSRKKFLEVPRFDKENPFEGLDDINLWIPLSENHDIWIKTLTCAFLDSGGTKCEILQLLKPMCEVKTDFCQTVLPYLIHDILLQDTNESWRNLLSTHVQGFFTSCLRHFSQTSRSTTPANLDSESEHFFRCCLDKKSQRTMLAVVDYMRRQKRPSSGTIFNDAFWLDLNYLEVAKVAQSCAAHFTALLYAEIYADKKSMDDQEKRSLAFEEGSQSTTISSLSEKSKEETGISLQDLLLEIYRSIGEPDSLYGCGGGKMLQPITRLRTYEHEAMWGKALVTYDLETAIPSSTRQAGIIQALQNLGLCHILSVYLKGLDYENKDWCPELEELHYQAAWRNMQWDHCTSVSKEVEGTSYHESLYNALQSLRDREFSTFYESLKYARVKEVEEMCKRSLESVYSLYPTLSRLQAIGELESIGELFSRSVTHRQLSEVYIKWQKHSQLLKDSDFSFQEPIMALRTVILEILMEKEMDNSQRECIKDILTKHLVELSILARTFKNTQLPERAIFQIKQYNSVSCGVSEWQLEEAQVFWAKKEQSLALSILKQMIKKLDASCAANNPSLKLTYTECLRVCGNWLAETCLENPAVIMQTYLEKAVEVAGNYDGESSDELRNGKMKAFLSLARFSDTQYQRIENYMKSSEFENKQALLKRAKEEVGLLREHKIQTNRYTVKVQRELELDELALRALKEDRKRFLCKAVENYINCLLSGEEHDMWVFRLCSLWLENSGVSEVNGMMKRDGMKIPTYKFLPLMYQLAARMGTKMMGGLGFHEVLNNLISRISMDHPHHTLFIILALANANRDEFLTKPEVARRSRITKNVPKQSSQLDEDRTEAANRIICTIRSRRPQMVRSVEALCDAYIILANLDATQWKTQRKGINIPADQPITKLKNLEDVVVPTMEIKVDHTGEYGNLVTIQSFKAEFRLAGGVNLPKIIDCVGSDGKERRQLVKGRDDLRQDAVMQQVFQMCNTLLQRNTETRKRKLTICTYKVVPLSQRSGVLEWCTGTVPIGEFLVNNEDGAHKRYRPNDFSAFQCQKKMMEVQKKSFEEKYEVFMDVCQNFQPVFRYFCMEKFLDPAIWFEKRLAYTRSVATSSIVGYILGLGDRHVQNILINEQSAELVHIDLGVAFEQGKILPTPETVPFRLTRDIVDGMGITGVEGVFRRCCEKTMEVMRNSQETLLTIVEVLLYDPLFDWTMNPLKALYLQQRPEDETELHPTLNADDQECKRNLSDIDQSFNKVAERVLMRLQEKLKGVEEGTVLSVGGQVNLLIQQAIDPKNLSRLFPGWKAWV
Protocol: (§5) The […], ATM(h), ATR/ATRIP(h), and DNA-PK (h) were detected by HTRFR.
(§6) The calculation formula was as follows: […]
(§7) For IC50 determination, the data were analyzed using XLFit version 5.3 (ID Business Solutions).

[6] = molecular target: T3, ATR/ATRIP(h) (Homo sapiens, UniProt Q13535); experiment: ATR/ATRIP(h) kinase activity, HTRF (Eurofins Cerep); type: biochemical; settings: read-out: ATR/ATRIP(h) (enzyme, IC50)
T3 construct: purchased Eurofins Cerep 14-953
Protocol: as §5, §6, §7

[7] = molecular target: T4, DNA-PK(h) (Homo sapiens, UniProt P78527); experiment: DNA-PK(h) kinase activity, HTRF (Eurofins Cerep); type: biochemical; settings: read-out: DNA-PK(h) (enzyme, IC50)
T4 construct: purchased Eurofins Cerep 14-950
Protocol: as §5, §6, §7

[8] = molecular target: T5, CD38 (Ramos cells) (Homo sapiens, UniProt P28907); experiment: Binding of antibody or ADC to Ramos cells (CD38+) by flow cytometry; settings: cell binding, MFI by flow cytometry
T5 construct: Ramos cells (ATCC, Cat. No. CRL-1596); host or cells: Ramos

[9] = molecular target: T6, CD20 (UniProt P11836 1-297, limits assumed); experiment: cell-based or functional assay
T6 sequence (looked up): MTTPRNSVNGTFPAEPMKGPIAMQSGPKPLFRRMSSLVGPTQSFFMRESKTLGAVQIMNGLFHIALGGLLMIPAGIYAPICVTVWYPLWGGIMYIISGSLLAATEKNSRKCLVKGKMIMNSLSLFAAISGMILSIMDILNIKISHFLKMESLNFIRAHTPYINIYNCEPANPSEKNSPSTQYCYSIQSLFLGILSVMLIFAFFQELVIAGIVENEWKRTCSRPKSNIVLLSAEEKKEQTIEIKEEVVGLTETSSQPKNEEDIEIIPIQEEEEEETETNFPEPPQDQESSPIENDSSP

[10] = molecular target: T6, CD20; experiment: flow cytometry on Ramos cells (CD20+)
[11] = molecular target: CEACAM5/6; experiment: cell-based or functional assay
[12] = molecular target: CEACAM5/6; experiment: flow cytometry on H2122 cells (CEACAM5/6+)
[13] = payloads, proliferation, 6 days, CCK-8

## COCC1(n2c(=O)n(C)c3cnc4ccc(-c5cnc(OC)c(NS(=O)(=O)N6CCNCC6)c5)cc4c32)CC1 [Compound 30]
[1]; [13]
  IC50: 0.41 nM
[2]; [13]
  IC50: 0.64 nM
[3]
  IC50: 2.3 nM
[4]
  IC50: 4.6 nM
[5]
  IC50: 1 nM
[6]
  IC50: 36 nM
[7]
  IC50: 0.6 nM

## COc1ncc(-c2ccc3ncc4c(c3c2)n(C(C)C)c(=O)n4C)cc1NS(=O)(=O)N1CCNCC1 [Compound 29]
[1]; [13]
  IC50: 0.056 nM
[2]; [13]
  IC50: 0.078 nM
[3]
  IC50: 1.4 nM
[4]
  IC50: 1.4 nM
[5]
  IC50: 0.7 nM
[6]
  IC50: 20 nM
[7]
  IC50: 0.3 nM

## COc1ncc(-c2ccc3ncc4c(c3c2)n(C2CC2)c(=O)n4C)cc1NS(=O)(=O)N1CCNCC1 [Compound 2]
[1]
  IC50: 0.31 nM
[2]
  IC50: 0.41 nM
[3]
  IC50: 0.7 nM
[4]
  IC50: 6.3 nM
[5]
  IC50: 1 nM
[6]
  IC50: 13 nM
[7]
  IC50: 0.4 nM

## COc1ncc(-c2ccc3ncc4cnc(C5CC5)n4c3c2)cc1NS(=O)(=O)N1CCNCC1 [Compound 1]
[1]; [13]
  IC50: 0.23 nM
[2]; [13]
  IC50: 0.39 nM
[3]
  IC50: 0.5 nM
[4]
  IC50: 3.6 nM
[5]
  IC50: 0.5 nM
[6]
  IC50: 9 nM
[7]
  IC50: 0.1 nM

## daratumumab
[8]
  EC50: 3.51 nM

B1: ADC-24 (antibody, human IgG1, kappa, V domains shown)
VH: QVQLQQPGAELVKPGASVKMSCKASGYTFTSYNMHWVKQTPGRGLEWIGAIYPGNGDTSYNQKFKGKATLTADKSSSTAYMQLSSLTSEDSAVYYCARSTYYGGDWYFNVWGAGTTVTVSA
VL: QIVLSQSPAILSASPGEKVTMTCRASSSVSYIHWFQQKPGSSPKPWIYATSNLASGVPVRFSGSGSGTSYSLTISRVEAEDAATYYCQQWTSNPPTFGGGTKLEIKR
[9]
  IC50, nM, cell proliferation, Ramos cell line (CD20^+): 27.7 nM
[10]
  EC50: 0.457 nM

B2: Rituximab (antibody, human IgG1, kappa, V domains shown)
VH: QVQLQQPGAELVKPGASVKMSCKASGYTFTSYNMHWVKQTPGRGLEWIGAIYPGNGDTSYNQKFKGKATLTADKSSSTAYMQLSSLTSEDSAVYYCARSTYYGGDWYFNVWGAGTTVTVSA
VL: QIVLSQSPAILSASPGEKVTMTCRASSSVSYIHWFQQKPGSSPKPWIYATSNLASGVPVRFSGSGSGTSYSLTISRVEAEDAATYYCQQWTSNPPTFGGGTKLEIKR
[10]
  EC50: 0.691 nM

B3: ADC-32 (antibody, human IgG1, kappa, V domains shown)
VH: QVQLVQSGAEVKKPGASVKVSCKASGYTFTDYAMHWVRQAPGQRLEWMGLISTYSGDTKYNQNFQGRVTMTVDKSASTAYMELSSLRSEDTAVYYCARGDYSGSRYWFAYWGQGTLVTVSS
VL: DIQMTQSPSSLSASVGDRVTITCQASENIYGALNWYQRKPGKSPKLLIYGASNLATGMPSRFSGSGSGTDYTFTISSLQPEDIATYYCQQVLSSPYTFGGGTKLEIKR
[11]
  IC50, nM, cell proliferation, H2122 cell line (CEACAM 5/6^+): 0.29 nM
[12]
  EC50: 4.26 nM

B4: mAb1 (antibody, human IgG1, kappa, V domains shown)
VH: QVQLVQSGAEVKKPGASVKVSCKASGYTFTDYAMHWVRQAPGQRLEWMGLISTYSGDTKYNQNFQGRVTMTVDKSASTAYMELSSLRSEDTAVYYCARGDYSGSRYWFAYWGQGTLVTVSS
VL: DIQMTQSPSSLSASVGDRVTITCQASENIYGALNWYQRKPGKSPKLLIYGASNLATGMPSRFSGSGSGTDYTFTISSLQPEDIATYYCQQVLSSPYTFGGGTKLEIKR
[12]
  EC50: 7.94 nM
